Assay results taken from patent publication US20250282798A1, “HETEROARYL-SUBSTITUTED BICYCLIC COMPOUND AND USE THEREOF” (Medshine Discovery Inc., priority 2022, published 2025).

Experiments:
[1] = In vitro metabolic stability in human liver microsomes; type: in vitro ADME; settings: 1 μM compound, 0.5 mg/mL protein
Method: The in vitro metabolic stability of the compounds of the present disclosure in human was investigated by the metabolic stability in human liver microsomes.
Assay conditions: 1 μM of a compound was incubated with human liver microsomes supplemented with NADPH regeneration system at 37° C. for a certain period of time up to 60 minutes. The concentration of the compound in the resulting sample was assayed by LC-MS/MS method.
Assay procedure: 96-well incubation plates were named T0, T5, T15, T30, T45, T60, Blank60 and NCF60, respectively. The reaction time corresponding to the incubation plates were 0, 5, 15, 30, 45 and 60 minutes, respectively. No test sample or control compound was added to the Blank60 plate, and samples were taken after 60 minutes of incubation. Potassium phosphate buffer was used instead of NADPH regeneration system solution in the NCF60 plate, and the plate was incubated for 60 minutes. All the samples of the time points were from a single well.
5 μL of a test sample or control sample working solution and 100 μL of microsome working solution (the concentration of liver microsome protein was 0.5 mg/mL) were added to the T0, T5, T15, T30, T45, T60 and NCF60 plates, respectively. Only microsome working solution was added to the Blank60 plate. Then, the Blank60, T5, T15, T30, T45 and T60 plates, except TO and NCF60 plates, were placed in a 37° C. water bath, and preincubated for about 10 minutes.
180 μL of stop solution (the stop solution was a solution of tolbutamide (100 ng/mL) in acetonitrile and methanol (95:5, V/V)) was firstly added to the sample of TO plate, and then the NADPH regeneration system working solution was added.
50 μL of potassium phosphate buffer was added to each well of the NCF60 plate, and the plate was incubated for 60 minutes.
After the pre-incubation of Blank60, T5, T15, T30, T45 and T60 plates, 44 μL of NADPH regeneration system working solution was added to each sample well to initiate the reaction. Therefore, for the sample wells containing a test sample or control sample working solution, the final concentration of the reaction was […], the concentration of liver microsomes was 0.5 mg/mL, and the final concentrations of DMSO and acetonitrile in the reaction system were 0.01% (v/v) and 0.99% (v/v), respectively.
After being incubated for an appropriate time (e.g., 5, 15, 30, 45, and 60 min), 180 μL of stop solution was added to each well of the test sample and control sample of Blank60, T5, T15, T30, T45, T60, and NCF60 plates, respectively, to terminate the reaction.
All sample plates were shaken and centrifuged for 10 min. 80 μL of the supernatant of a test sample was taken and diluted into 240 μL of a mixture of acetonitrile and water (1:9, V/V) containing 0.1% formic acid for LC-MS/MS analysis.
By calculating the corresponding time point and the remaining percentage of a compound, the half-life T1/2 and clearance rate CLint(liver) of the compound in human liver microsome metabolism were obtained.

[2] = target: human GLK (Homo sapiens (Human), UniProt Q8IVH8); assay: Kinase activity assay using ADP-Glo method, GLK; type: biochemical; settings: GLK enzyme concentration 8 nM; ATP 20 μM
human GLK, sequence (Q8IVH8 whole entry): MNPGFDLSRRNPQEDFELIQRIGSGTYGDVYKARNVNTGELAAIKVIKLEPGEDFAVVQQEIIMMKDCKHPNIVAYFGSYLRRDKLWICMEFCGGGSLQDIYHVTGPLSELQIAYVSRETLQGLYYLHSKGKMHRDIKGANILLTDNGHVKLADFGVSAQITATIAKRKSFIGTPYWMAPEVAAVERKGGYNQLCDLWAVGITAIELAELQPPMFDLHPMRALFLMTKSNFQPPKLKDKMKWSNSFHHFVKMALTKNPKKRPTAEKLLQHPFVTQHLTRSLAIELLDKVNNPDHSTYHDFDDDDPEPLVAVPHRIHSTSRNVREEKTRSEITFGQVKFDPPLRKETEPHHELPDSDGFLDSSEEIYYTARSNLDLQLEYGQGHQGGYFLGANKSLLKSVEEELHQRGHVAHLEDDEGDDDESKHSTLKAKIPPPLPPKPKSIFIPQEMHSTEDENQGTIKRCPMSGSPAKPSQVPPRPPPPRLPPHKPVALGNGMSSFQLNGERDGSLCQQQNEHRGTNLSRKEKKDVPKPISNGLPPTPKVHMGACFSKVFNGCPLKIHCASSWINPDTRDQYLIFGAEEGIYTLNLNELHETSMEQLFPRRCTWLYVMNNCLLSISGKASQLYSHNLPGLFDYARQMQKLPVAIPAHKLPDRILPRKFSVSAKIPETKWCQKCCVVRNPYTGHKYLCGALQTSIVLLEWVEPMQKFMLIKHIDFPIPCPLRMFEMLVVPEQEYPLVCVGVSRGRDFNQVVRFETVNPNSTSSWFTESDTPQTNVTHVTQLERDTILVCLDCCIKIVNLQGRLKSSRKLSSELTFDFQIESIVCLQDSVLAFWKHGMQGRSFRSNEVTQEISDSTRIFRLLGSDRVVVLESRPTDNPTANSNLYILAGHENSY
Method: The IC50 value was assayed by the kinase activity assay using ADP-Glo method to evaluate the inhibitory ability of a test compound on human GLK.
(§1) Enzyme buffer conditions: 50 mM Hepes (pH 7.5), 10 mM MgCl2, 1 mM EGTA, 0.01% Brij35, 2 mM DTT.
Preparation of the mixture of kinase and substrate: the concentration of GLK in the reaction solution was 8 nM, the concentration of ATP was […], and the concentration of MBP was 0.05 mg/mL.
(§2) Assay steps: A compound was diluted 4-fold with DMSO in a dilution plate, with a final initial concentration of […] and 10 concentration gradient points. The compound was diluted 50-fold into the kinase reaction buffer, and the mixture was shaken on a shaker for 20 minutes. The kinase was prepared with the enzyme reaction buffer. 2 μL of kinase was added to each well of a reaction plate. 1 μL of the diluted compound in the buffer was added to each well. The plate was sealed with a sealing film, centrifuged at 1000 g for 30 seconds, and placed at room temperature for 10 minutes. The mixed solution of ATP/MBP was prepared with the enzyme reaction buffer. 2 μL of the mixed solution of ATP/MBP was added to the reaction plate. The plate was sealed with a sealing film, and centrifuged at 1000 g for 30 seconds. The mixture in the plate was reacted at room temperature for 60 minutes. 4 μL of ADP-Glo was transferred to the 384 reaction plate, and centrifuged at 1000 rpm/min for 1 min. The plate was incubated at 25° C. for 40 min. 8 μL of detection solution was transferred to the 384 reaction plate, and centrifuged at 1000 rpm/min for 1 min. The plate was incubated at 25° C. for 40 min. The RLU (relative luminescence unit) signal was read with a BMG microplate reader, and the signal intensity was used to characterize the activity of the kinase.
(§3) The kinase activity data were expressed as the comparison of the kinase activity of a group with a test compound and the kinase activity of the blank group (containing only DMSO). The IC50 value was obtained by curve fitting using Prism software (GraphPad7.0).

[3] = target: T1, human HPK1 (Homo sapiens (Human), UniProt Q92918); assay: Kinase activity assay using ADP-Glo method (Method 2); type: biochemical; settings: HPK1 enzyme concentration 0.1 nM; ATP concentration 10 μM
T1 sequence (Q92918 whole entry): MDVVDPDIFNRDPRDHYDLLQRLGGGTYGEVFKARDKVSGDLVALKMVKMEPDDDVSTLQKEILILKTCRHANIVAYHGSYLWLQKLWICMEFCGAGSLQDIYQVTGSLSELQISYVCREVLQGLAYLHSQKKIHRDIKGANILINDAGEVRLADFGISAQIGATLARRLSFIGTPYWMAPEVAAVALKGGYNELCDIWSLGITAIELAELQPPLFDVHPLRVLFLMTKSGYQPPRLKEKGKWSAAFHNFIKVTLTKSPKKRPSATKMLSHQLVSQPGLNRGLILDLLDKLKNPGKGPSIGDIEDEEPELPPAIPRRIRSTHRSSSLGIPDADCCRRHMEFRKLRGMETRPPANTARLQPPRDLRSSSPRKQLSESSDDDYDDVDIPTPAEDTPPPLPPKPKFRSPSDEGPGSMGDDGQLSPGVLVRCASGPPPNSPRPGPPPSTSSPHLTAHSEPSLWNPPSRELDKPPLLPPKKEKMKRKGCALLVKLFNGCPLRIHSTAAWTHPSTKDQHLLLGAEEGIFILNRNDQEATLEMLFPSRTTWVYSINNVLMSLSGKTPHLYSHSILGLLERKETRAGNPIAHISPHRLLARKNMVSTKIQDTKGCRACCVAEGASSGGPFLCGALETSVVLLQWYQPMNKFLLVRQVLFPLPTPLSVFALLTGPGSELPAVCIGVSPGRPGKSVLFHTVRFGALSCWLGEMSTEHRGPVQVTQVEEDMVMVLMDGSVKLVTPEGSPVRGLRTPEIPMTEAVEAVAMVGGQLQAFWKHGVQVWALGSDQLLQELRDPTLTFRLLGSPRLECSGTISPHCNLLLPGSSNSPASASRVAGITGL
Method: Method 2: The IC50 value was assayed by the kinase activity assay using ADP-Glo method to evaluate the inhibitory ability of a test compound on human HPK1.
Enzyme buffer conditions: 50 mM Hepes (pH 7.5), 10 mM MgCl2, 1 mM EGTA, 0.01% Brij35, 2 mM DTT. […]
as §2, with “4 μL of ADP-Glo was transferred to the 384 reaction plate, and centrifuged at 1000 rpm/min for 1 min.” left out, “8 μL of detection solution was transferred to the 384 reaction plate, and centrifuged at 1000 rpm/min for 1 min.” left out
as §3

[4] = test system: MDR1 (P-glycoprotein); assay: Permeability evaluation in MDR1-MDCK II cells; type: in vitro ADME; settings: dog
Method: Cell line: The MDR1-MDCK II cell line authorized by Piet Borst's laboratory at the Netherlands Cancer Research Institute was used in this assay as an in vitro model for the permeability evaluation assay. The cells were inoculated in a Transwell-96 well cell plate at a density of 2.3×10^5 cells/cm^2, and cultured in a carbon dioxide incubator for 4-7 days before use in the transport assay.
The administration concentration of the test sample was 2.00 μM.
Test direction and number of parallel samples: bidirectional A-B and B-A, 2 parallels
Transport buffer (TB): HBSS solution containing 10 mM HEPES (pH 7.40±0.05)
Incubation conditions: 37±1° C., 5% CO2, incubated for 150 minutes
Control compounds: Nadolol and metoprolol were used as low-permeability and high-permeability control compounds. Digoxin was used as a substrate of P-glycoprotein. The administration concentration of nadolol and metoprolol was 2.00 μM, and the administration concentration of digoxin was 10.0 μM.
After the transport assay, the integrity of the MDR1-MDCK II cell layer was assayed by the Lucifer Yellow Rejection Assay. The remaining solution in the apical and basolateral wells was removed. 75 μL of TB containing 100 μM Lucifer Yellow was added to the apical well, and 250 μL of TB was added to the basolateral well. The cell plate was incubated in a cell culture incubator at 37±1° C., 5% CO2 and saturated humidity for 30 minutes. Then, 20 μL of sample was taken from the apical well and mixed with 60 μL of TB, and 80 μL of sample was taken from the basolateral well. The relative fluorescence unit (RFU) was measured at 425/528 nm (excitation/emission) using a microplate reader.
In this assay, the sample analysis of the test samples and control compounds of nadolol, metoprolol, and digoxin was performed by liquid chromatography-tandem mass spectrometry (LC-MS/MS). The retention time of the analytes and internal standards, chromatogram acquisition, and chromatogram integration were processed using the software Analyst (Sciex, Framingham, MA, USA). The sample analysis was semi-quantitatively determined using the peak area of analyte and the peak area of internal standard.
VR is the volume of the receiver end solution (0.075 mL for side A, and 0.25 mL for side B); Area is the relative surface area of the cell monolayer (0.0804 cm2); Time is the incubation time (9000 s); C0 is the peak area ratio of the compound at the administration end; VD is the volume of the administration end (0.075 mL for side A, and 0.25 mL for side B); CD and CR are the peak area ratios of the compound at the administration end and the receiver end, respectively.

[5] = target: T1, human HPK1; assay: 33P isotope-labeled kinase activity assay (Method 1); type: biochemical; settings: HPK1 enzyme concentration 8.1 nM; ATP concentration 15 μM
Method: Method 1: The IC50 value was assayed by ^33P isotope-labeled kinase activity assay to evaluate the inhibitory ability of a test compound on human HPK1.
as §1
as §2, with “3-fold” for “4-fold”, “4 μL of ADP-Glo was transferred to the 384 reaction plate, and centrifuged at 1000 rpm/min for 1 min.” left out, “8 μL of detection solution was transferred to the 384 reaction plate, and centrifuged at 1000 rpm/min for 1 min.” left out

[6] = Pharmacokinetic evaluation in mice; type: in vivo, female Balb/c mice
Method: Assay procedure: 10% DMSO+20% PEG400+70% (30% SBE-P3-CD aqueous solution) (the trifluoroacetate of compound 4, the trifluoroacetate of compound 9) or 10% SBE-β-CD aqueous solution (the trifluoroacetate of compound 24-3) was injected into female Balb/c mice (overnight fasting, 7-9 weeks old) via the tail vein. Female Balb/c mice (overnight fasting, 7-9 weeks old) were gavaged with 10% DMSO+20% PEG400+70% (30% SBE-β-CD aqueous solution (the trifluoroacetate of compound 4, the trifluoroacetate of compound 9) or 10% SBE-P3-CD aqueous solution (the trifluoroacetate of compound 24-3) at dosages shown in Table 7. About 30 μL of blood of the two groups of animals was collected from the jugular vein at 0.0833, 0.25, 0.5, 1.0, 2.0, 4.0, 8.0, and 24 hours after the administration, and from the tail vein at 0.25, 0.5, 1.0, 2.0, 4.0, 8.0, and 24 hours after the administration, respectively, and placed in an anticoagulant tube with EDTA-K2 added. The tube was centrifuged to separate the plasma. The plasma concentration was assayed by LC-MS/MS. The relevant pharmacokinetic parameters were calculated with WinNonlin™ Version 6.3 (Pharsight, Mountain View, CA) pharmacokinetic software using the non-compartmental linear logarithmic trapezoidal method.

[7] = female, Balb/c, mouse, plasma, IV 2 mg/kg
[8] = female, Balb/c, mouse, plasma, PO 75 mg/kg

Q: Which results are given for O=C1NCc2c(-c3cnc4cc(F)ccn34)ccc(Nc3ccc4c(n3)OC[C@H]3COCCN43)c21 [Compound 9]?
A: CLint scaled at 1 μM [1]: 39 mL/min/kg; half-life at 1 μM [1]: 32 min; IC50 [2]: 115 nM; IC50 [3]: 0.7 nM

Q: With Cn1ccc2c(-c3ncc(Nc4ccc5c(n4)OC[C@H]4COCCN54)c4c3CNC4=O)ccnc21 [Trifluoroacetate of compound 20] as the molecule, how does the CLint scaled at 1 μM [1] read?
A: 63 mL/min/kg

Q: What about the half-life at 1 μM [1] of the same molecule?
A: 20 min

Q: What about the IC50 [2] of the same molecule?
A: 198 nM

Q: What about the Papp A→B at 150 min, 2 μM ([4]; pH 7.4, 2.00 μM, 150 minutes) of the same molecule?
A: 4.61 ×10⁻⁶ cm/s

Q: What about the Papp B→A at 150 min, 2 μM ([4]; pH 7.4, 2.00 μM, 150 minutes) of the same molecule?
A: 22.5 ×10⁻⁶ cm/s

Q: And the efflux ratio at 150 min, 2 μM ([4]; pH 7.4, 2.00 μM, 150 minutes)?
A: 4.88

Q: What about the Papp at 150 min, 2 μM ([4]; pH 7.4, class by Papp, read-out: Conclusion of the permeability) of the same molecule?
A: 1 to 5.5 ×10⁻⁶ cm/s

Q: With CN1Cc2nc(Nc3ccc(-c4cnc5cc(F)ccn45)c4c3C(=O)NC4)ccc2N2CCOCC2C1 (stereo not drawn) [Trifluoroacetate of compound 16] as the molecule, how does the IC50 [2] read?
A: 277 nM

Q: With CN(C)Cc1cc(Nc2ncc(-c3cnc4cc(F)ccn34)c3c2C(=O)NC3)ccc1N1CCOCC1 [Compound 2] as the molecule, how does the IC50 [5] read?
A: 18 nM

Q: What does the source list for O=C1NCc2c(-c3cnc4cc(F)ccn34)ccc(Nc3ccc4c(n3)OC[C@H]3COCCN43)c21 [Trifluoroacetate of compound 9]?
A: Tlast ([6]; IV 2 mg/kg): 2 h; Tlast ([6]; PO 75 mg/kg): 8 h; AUC(0-inf) [6, 7]: 1.95 µM·h; AUC(0-t) [6, 7]: 1.93 µM·h; C0 [6, 7]: 6.06 µM; clearance [6, 7]: 36 mL/min/kg; half-life [6, 7]: 18 min; Vd ([6]; female, Balb/c, mouse, plasma, IV 2 mg/kg, read-out: Vdss): 0.8 L/kg; AUC(0-inf) [6, 8]: 108 µM·h; AUC(0-t) [6, 8]: 108 µM·h; Cmax [6, 8]: 39.8 µM; Tmax [6, 8]: 48 min; half-life [6, 8]: 48 min; bioavailability ([6]; female, Balb/c, mouse, plasma, PO 75 mg/kg vs IV 2 mg/kg, calculated using AUC0-last): 148%
